Reference: US10131691B2, “Compositions and methods for specific regulation of pyruvate dehydrogenase kinase” (THE BOARD OF TRUSTEES OF THE LELAND STANFORD JUNIOR …, priority 2011, dated 2018)
No end group written: not given here.

Experiments:
δPKC = target: T1, δPKC (Mus musculus, UniProt P28867); assay: MARCKS phosphorylation in wild-type fibroblasts (Western blot); format: cell-based; settings: 20% serum, peptides conjugated to TAT47-57, relative to control peptide
T1 construct: endogenous in cells; host or cells: primary fibroblasts from wild-type mice
T1 sequence (P28867 whole entry): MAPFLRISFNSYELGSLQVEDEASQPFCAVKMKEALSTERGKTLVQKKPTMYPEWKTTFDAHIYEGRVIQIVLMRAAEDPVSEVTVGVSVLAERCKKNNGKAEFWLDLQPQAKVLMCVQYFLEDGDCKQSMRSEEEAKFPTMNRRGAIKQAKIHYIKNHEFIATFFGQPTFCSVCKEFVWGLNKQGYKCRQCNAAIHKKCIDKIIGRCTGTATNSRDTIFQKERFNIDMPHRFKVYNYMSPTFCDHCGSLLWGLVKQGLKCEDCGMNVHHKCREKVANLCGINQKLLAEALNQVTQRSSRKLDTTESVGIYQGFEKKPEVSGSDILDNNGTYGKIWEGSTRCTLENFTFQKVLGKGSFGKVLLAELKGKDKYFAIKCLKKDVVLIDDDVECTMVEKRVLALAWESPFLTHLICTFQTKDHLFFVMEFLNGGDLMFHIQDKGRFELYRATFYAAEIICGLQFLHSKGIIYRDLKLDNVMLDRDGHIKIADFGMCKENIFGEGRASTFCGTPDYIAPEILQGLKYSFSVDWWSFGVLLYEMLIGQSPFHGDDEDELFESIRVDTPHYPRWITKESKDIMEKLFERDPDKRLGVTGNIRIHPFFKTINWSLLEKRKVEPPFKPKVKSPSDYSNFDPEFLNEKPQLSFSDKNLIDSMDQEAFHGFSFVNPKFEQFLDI
Text: (§1) Fibroblasts were isolated from wild-type or δPKC knockout mice (provided by Dr. Robert Messing, Gallo Center, UCSF) as previously described (Disatnik et al., 2004, J. Cell Sci., 117:4469-4479) and maintained in 20% fetal bovine serum.
(§2) Phosphorylation of myristoylated alanine-rich C kinase substrate (MARCKS), a ubiquitous PKC substrate, was monitored by Western blot of total cell lysates, using anti-phosphorylated MARCKS (Cell Signaling, Danvers, Mass.). Anti-MARCKS and anti-δPKC antibodies were obtained from Santa Cruz Biotechnology (Santa Cruz Biotechnology, CA, USA).
(§3) The ΨPDK sequence is found both in PDK and in the PDK-cognate protein, δPKC. It was therefore predicted that ΨPDK mimics inhibitory intra-molecular interaction, and, similar to ΨδRACK, ΨPDK should compete with the inhibitory interaction of PDK and δPKC, and increase δPKC-mediated functions (FIG. 1A). Phosphorylation of myristoylated alanine-rich C-kinase substrate (MARCKS) was used as a marker of PKC activity (Disatnik et al., 2004, J. Cell. Sci., 117:4469-4479). […] To determine the selectivity of the peptides for δPKC, fibroblasts derived from δPKC knock-out mice were also used.

hearts subjected to I/R = assay: Ex vivo cardiac protection from ischemia/reperfusion (Langendorff; infarct size, CPK release); design: species or system rat; settings: for CPK (u/L) / protection from I/R injury: ex vivo I/R; for CPK (u/L): release into perfusate, 1 μM peptide; for cardioprotection / biological activity in ex vivo I/R model (in words): CPK release and JNK phosphorylation as markers; for protection from I/R injury: n=6
Method: An ex vivo model of acute ischemic heart damage was used, which involves a 30 min equilibration period, followed by 30 min of global ischemia, which in turn is followed by 60 min of reperfusion. The hearts were perfused with 1 μM TAT or TAT-conjugated peptide. Normoxic control hearts were subjected to 90 min perfusion in the absence of ischemia. Coronary effluent was collected to determine creatine phosphokinase (CPK) release during the first 30 min of the reperfusion period. At the end of the reperfusion period, hearts were sliced into 1-mm-thick transverse sections and incubated in triphenyltetrazolium chloride solution (TTC, 1% in phosphate buffer, pH 7.4) at 37° C. for 15 min. Infarct size was expressed as a percentage of the risk zone (equivalent to total LV muscle mass) (methods described in Brandman et al., 2007, J. Biol. Chem., 282:4113-4123; Inagaki et al., 2003, Circulation, 108:869-875). […]
(§4) First, I/R-induced infarct size after treatment with ΨPDK or δV1-1 (Inagaki et al., 2003, Circulation, 108:869-875), was smaller than that in hearts treated with the control peptide or with ΨδRACK, the δPKC-specific activator or with δV1-5 (FIG. 6A). Second, similar data were obtained when determining the levels of released creatine phosphokinase (CPK), as a marker of myocardial infarction; CPK levels in the ΨPDK- or δV1-1-treated hearts were similar and were lower than those after treatment with control peptide, ΨδRACK or δV1-5 (FIG. 6B).
(§5) To begin determining the contribution of each of the amino acids on the effect of the peptide, Alanine scanning was used (Brunel et al., 2006, J. Virol., 80:1680-1687; Chen et al., J. Pep. Res., 2000, 56:147-156; Brems et al., 1992, Prot. Eng., 5:527-533) (substituting individual amino acid with an alanine). The resultant ΨPDK peptide analogs were then used in the same model of myocardial infarction, using CPK release and JNK phosphorylation as markers for cardiac injury. CPI release into the perfusates and pJNK in the hearts were determined after I/R in the presence of respective peptides and compared to the levels in hearts subjected to I/R in the presence of the control peptide. None of the peptides having a substitution had any significant biological activity (Table 1).

JNK = JNK phosphorylation in hearts subjected to I/R (Western blot); design: species or system rat; settings: ex vivo I/R hearts, 1 μM peptide
Method: An ex vivo model of acute ischemic heart damage was used, which involves a 30 min equilibration period, followed by 30 min of global ischemia, which in turn is followed by 60 min of reperfusion. The hearts were perfused with 1 μM TAT or TAT-conjugated peptide. Normoxic control hearts were subjected to 90 min perfusion in the absence of ischemia. Coronary effluent was collected to determine creatine phosphokinase (CPK) release during the first 30 min of the reperfusion period. At the end of the reperfusion period, hearts were sliced into 1-mm-thick transverse sections and incubated in triphenyltetrazolium chloride solution (TTC, 1% in phosphate buffer, pH 7.4) at 37° C. for 15 min. Infarct size was expressed as a percentage of the risk zone (equivalent to total LV muscle mass) (methods described in Brandman et al., 2007, J. Biol. Chem., 282:4113-4123; Inagaki et al., 2003, Circulation, 108:869-875).
Rat hearts were homogenized in a buffer containing 210 mM mannitol, 70 mM sucrose, 5 mM MOPS and 1 mM EDTA followed by isolation of the mitochondria fraction (described in Churchill et al., 2008, J. Mol. Cell. Cardiol., 46:278-284) and identified by the presence of VDAC (MitoSciences, Eugene, Oreg., USA). The level of phosphorylated and unphosphorylated JNK1/2 was analyzed in the total fraction using respective specific antibodies (Cell Signaling, Danvers, Mass. and Santa Cruz Biotechnology, CA, USA).
as §4, §5

[1] = tested on: fibroblasts derived from δPKC knock-out mice; assay: MARCKS phosphorylation in fibroblasts from δPKC knock-out mice; format: cell-based, mouse; settings: fibroblasts lacking δPKC
Text: as §1, §2, §3

| Molecule | CPK (u/L) (hearts subjected to I/R) | p-JNK/total JNK (JNK) | also measured |
| --- | --- | --- | --- |
| CCCCCCCCCCCCCC(=O)O[C@@H]1[C@@H](C)[C@@]2(O)[C@@H](C=C(CO)C[C@]3(O)C(=O)C(C)=C[C@@H]23)[C@@H]2C(C)(C)[C@]12OC(C)=O [PMA, Phorbol 12-myristate 13-acetate, reference compound] |  |  | MARCKS phosphorylation (δPKC): caused increased MARCKS phosphorylation |
| AASTER [p192] | 1272 ± 172 u/L | 0.7 ± 0.10 |  |
| ALATER [p193] | 1155 ± 299 u/L | 0.7 ± 0.03 |  |
| ALS(p)T(p)ER [p199] | 842 ± 258 u/L | 0.6 ± 0.02 | cardioprotection / biological activity in ex vivo I/R model (in words) (hearts subjected to I/R): None of the phosphorylated peptides (p197, 198, 199) affected cardioprotection |
| ALS(p)TER [p198] | 1169 ± 293 u/L | 0.9 ± 0.10 | cardioprotection / biological activity in ex vivo I/R model (in words) (hearts subjected to I/R): None of the phosphorylated peptides (p197, 198, 199) affected cardioprotection |
| ALSAER [p194] | 886 ± 211 u/L | 0.6 ± 0.10 |  |
| ALST(p)ER [p197] | 803 ± 131 u/L | 0.7 ± 0.10 | cardioprotection / biological activity in ex vivo I/R model (in words) (hearts subjected to I/R): None of the phosphorylated peptides (p197, 198, 199) affected cardioprotection |
| ALSTAR [p195] | 913 ± 199 u/L | 0.7 ± 0.10 |  |
| ALSTEA [p196] | 926 ± 265 u/L | 0.9 ± 0.10 |  |
| GKTLVQ (not fully specified (C-terminus); also: TAT47-57 conjugated via disulfide to C-terminal Cys) [δV1-5, reference compound] |  |  | MARCKS phosphorylation (δPKC): increased MARCKS phosphorylation; MARCKS phosphorylation [1]: increased MARCKS phosphorylation |
| YGRKKRRQRRRGSGALSTER [TAT-GSG-ΨPDK] |  |  | protection from I/R injury (hearts subjected to I/R): 73% |
| ΨPDK-Cs-sC-TAT: SEQ ID NO. 2 linked to SEQ ID NO. 33 (TAT) via a disulfide bond (chain 1 ALSTER; chain 2 YGRKKRRQRRR; not fully specified; disulfide bond linkage) |  |  | protection from I/R injury (hearts subjected to I/R): 45% |
